Measurements taken from patent US12103925B2, “Crystal and amorphous form of tolebrutinib, preparation method therefor, and use thereof” (HANGZHOU SOLIPHARMA CO., LTD., priority 2021, dated 2024).
≈ marks a conversion by molar mass, not a printed value. Where “and” joins values, the source holds several entries; their conditions need not be identical. Equal values may be shown once. Entries after “also recorded” stand apart in the source; their conditions may differ.

Key:
Type in all cases: physicochemical
[1] = Stability of the solid form in tablets at 25° C./60% RH (XRPD); settings: XRPD before and after storage
Procedure: (§1) Following the formulation in Table 6, API, lactose hydrate, polyvinylpyrrolidone, hydroxypropyl cellulose, microcrystalline cellulose and magnesium stearate were mixed and compressed to obtain a tablet core. Subsequently, the tablet cores are coated with a solution/suspension for film coating, resulting in the preparation of the tablets.
The prepared amorphous tablets, Form 1 tablets and Form 2 tablets were individually placed at 25° C./60% RH for 14 days. XRPD tests were performed before and after storage.

[2] = Stability study under long-term and accelerated conditions (XRPD and HPLC); settings: for Purity after placing / sample after placing / chemical purity before and after storage: 10 months; for Purity after placing: HPLC; for sample after placing: XRPD; for time the solid form remains unchanged / stable: both long-term (25° C./60% RH/open) and accelerated (40° C./75% RH/open) conditions; for chemical purity before and after storage: long-term and accelerated conditions
Procedure: In this application, X-ray powder diffraction (XRPD) data were collected using a BrukerD8 Advance diffractometer; parameters are as follows: Cu radiation; wavelength: 1.54 Å; Current voltage: 40 KV, 40 mA; Scan range: 3˜40′2θ.
(§2) In this application, the HPLC parameters for chemical stability and solubility are as follows:
[…] Regular testing using XRPD and HPLC was performed.
(§3) […] Regular testing using XRPD and HPLC were performed.
as §3

[3] = Stability under light and oxidation conditions; settings: for time the form remains stable under light: light (25° C./4500 lx/closed); for chemical purity before and after storage: light and oxidation conditions, 14 days; for time the form remains stable under oxidation: oxidation (in an atmosphere of carbamide peroxide)
[4] = Solid form before and after the tableting process (XRPD); settings: XRPD comparison
Text: as §1

[5] = Dynamic moisture adsorption analysis (DVS), hygroscopicity
Procedure: In this application, dynamic moisture adsorption analysis (DVS) data and isothermal adsorption analysis data were obtained using a TA Instruments Q5000 TGA; parameters are as follows: temperature: 25° C.; relative humidity range: 0% RH-80% RH; dm/dt=0.001%/min; equilibration time: gas: N2; sample pan: platinum pan.

[6] = Solubility study in pH 1.2 buffer solution and pH 1.2 SGF (HPLC); settings: for Solubility, pH 1.2 SGF: pH 1.2 SGF (with pepsin)
Procedure: as §2
The amorphous form of tolebrutinib, Form 1 and Form 2 samples of the present application were studied using pH 1.2 buffer solution (preparation: 375.90 mg potassium chloride solid and 1709.47 mg concentrated hydrochloric acid (37%) were added to a 100 mL volumetric flask, 80 mL of pure water was added, adjusted the pH to 1.2 with hydrochloric acid or potassium hydroxide, q.s. to volume) and pH 1.2 SGF (preparation: In 765 μL of concentrated hydrochloric acid (37%) added about 80 mL of water, 1 g of pepsin, 200 mg chlorinated sodium, shook, diluted with water to 100 mL) to form a supersaturated solution, and the dissolved content of the sample in the saturated solution was determined by high performance liquid chromatography (HPLC) at a fixed time point.

[7] = Compressibility study (tablet compression, hardness, tensile strength); settings: for tensile strength: calculated, T=2H/πDL*9.8; for diameters / thicknesses: circular tablets, 7.5 mm punch; for diameters / thicknesses / hardness: mean main pressure 1.8 KN; for hardness: radial breaking force, tablet hardness tester
Procedure: The tablet compression was conducted using a Tianxiang rotary tablet press. A circular punch with a diameter of 7.5 mm (07.5 mm) was selected, a filling depth of 17.9 mm and a mean main pressure of 1.8 KN was used to form circular tablets. The tablets' radial breaking force (hardness, H) was measured using a tablet hardness tester. The tablets' diameter (D) and thickness (L) were measured using a vernier caliper. The tensile strength (T) of the powder was calculated using the formula T=2H/πDL*9.8.

[8] = Polarized light microscope (PLM) particle size; settings: PLM image
Procedure: In this application, the polarized light microscope (PLM) images were collected using a XPV˜990E polarized light microscope; a small amount of powder sample was placed on a glass slide, a small amount of mineral oil was added dropwise to disperse the sample, a cover glass was placed on the slide, and the sample was placed on the slide. Observing and taking pictures on the stage.

[9] = Competitive slurry experiments
[10] = listed as amorphous form of tolebrutinib
[11] = listed as amorphous tolebrutinib
[12] = pH 1.2 buffer and pH 1.2 SGF (medium simulating the physiological pH of the human stomach)
[13] = pH 1.2 buffer solution, 2 hours

SMILES	Purity after placing ([2]; 40° C./75% RH/open)	sample after placing ([2]; 40° C./75% RH/open)	solid form before and after the tableting process [4]	Solubility, pH 1.2 SGF ([6]; 2 hours) [mg/mL]	tensile strength [7] [MPa]	diameters [7] [mm]	thicknesses [7] [mm]	hardness [7] [kg]	Purity after placing ([2]; 25° C./60% RH/open) [%]	sample after placing ([2]; 25° C./60% RH/open)	time the solid form remains unchanged / stable [2] [months]	time the form remains stable under light [3]	chemical purity before and after storage [3]	time the form remains stable under oxidation [3]	solubility, approximate level [6, 12]	Solubility, pH 1.2 buffer solution [6, 13] [mg/mL]	particle size [8] [μm]	further results
C=CC(=O)N1CCC[C@@H](n2c(=O)n(-c3ccc(Oc4ccccc4)cc3)c3c(N)nccc32)C1 [Amorphous, tolebrutinib]	98.00%	Amorphous	remained unchanged	36.76	1.4	7.49	4.15	7.18										time the solid form remains unchanged / stable in the formulation (tablets) [1, 10]: 14 days; Purity after placing ([2]; 25° C./65% RH/open): 98.87%; sample after placing ([2]; 25° C./65% RH/open): Amorphous; Purity after placing ([2]; 40° C./75% RH/open, listed as amorphous form of tolebrutinib): 98.0%; time the solid form remains unchanged / stable [2, 10]: 10 months; time the solid form remains unchanged / stable [2, 11]: 10 months; chemical purity before and after storage [2, 10]: essentially unchanged; chemical purity before and after storage [2, 11]: essentially unchanged; time the form remains stable under light [3, 10]: 14 days; time the form remains stable under light [3, 11]: at least 14 days; chemical purity before and after storage [3, 10]: no essential change; chemical purity before and after storage [3, 11]: essentially unchanged; time the form remains stable under oxidation [3, 10]: 14 days; time the form remains stable under oxidation [3, 11]: at least 14 days; DVS weight gain ([5]; between 20% RH and 80% RH, 25° C., listed as amorphous form of tolebrutinib): about 1.9%; DVS weight gain ([5]; between 20% RH and 80% RH, 25° C., listed as sample 1-1): about 1.9%; solubility compared with the crystal forms [6]: surpassing that of Tolebrutinib Form 1 and Form 2; solubility ([6]; pH 1.2 buffer solution and pH 1.2 SGF, pH 1.2, simulated gastric fluid, thermodynamic from solid, pH 1.2 buffer and pH 1.2 SGF (medium simulating the physiological pH of the human stomach), read-out: solubility, approximate level): ~20 mg/mL (≈ 43.9 mM); solubility at 2 hours ([6]; pH 1.2 buffer solution, pH 1.2, simulated gastric fluid, thermodynamic from solid, 2 hours): 29.1 mg/mL (≈ 63.8 mM)
C=CC(=O)N1CCC[C@@H](n2c(=O)n(-c3ccc(Oc4ccccc4)cc3)c3c(N)nccc32)C1 [Form 1, tolebrutinib]	99.5% and 99.54%	Form 1	remained unchanged	18.28	1.3	7.51	4.18	6.40	99.77	Form 1	10	at least 14 days	basically unchanged	at least 14 days	approximately 20 mg/mL	21.19	≤ 10	time the solid form remains unchanged / stable in the formulation (tablets) ([1]; listed as Tolebrutinib Form 1): at least 14 days; time the solid form remains unchanged / stable ([2]; listed as Tolebrutinib Form 1): at least 10 months; chemical purity before and after storage ([2]; listed as Tolebrutinib Form 1): basically unchanged; also recorded: essentially unchanged; DVS weight gain ([5]; between 20% RH and 80% RH, 25° C., listed as sample 2-1): about 0.46%; solubility, approximate level ([6]; pH 1.2 buffer and pH 1.2 SGF (medium simulating the physiological pH of the human stomach), listed as Tolebrutinib Form 1): around 20 mg/mL
C=CC(=O)N1CCC[C@@H](n2c(=O)n(-c3ccc(Oc4ccccc4)cc3)c3c(N)nccc32)C1 [Form 2, tolebrutinib]	98.24%	Form 2	remained unchanged	32.45	1.7	7.51	4.18	8.31	98.87	Form 2	10	at least 14 days	basically unchanged	at least 14 days	approximately 20 mg/mL	21.44	≤ 10	thermodynamic stability [9]: thermodynamically stable form at temperatures of 30 °C and above; time the solid form remains unchanged / stable in the formulation (tablets) ([1]; listed as Tolebrutinib Form 2): at least 14 days; time the solid form remains unchanged / stable ([2]; listed as tolebrutinib Form 2): at least 10 months; chemical purity before and after storage ([2]; listed as Tolebrutinib Form 2): essentially unchanged; chemical purity before and after storage ([2]; listed as tolebrutinib Form 2): basically unchanged; DVS weight gain ([5]; between 0% RH and 80% RH, listed as Tolebrutinib Form 2): 0.3%; DVS weight gain ([5]; between 0% RH and 80% RH, listed as sample 3-1): about 0.34%
